Calls of active or inactive are those of the source.
Tests used:
A549 [1] = assay: Upregulation of p53 protein expression in human A549 cells measured after 3 to 24 hrs; type: functional, cell-based; details: dose 10-100 nM, time 3-24 hrs
[2] = biological target: Protein cereblon/Bromodomain-containing protein 3 (Homo sapiens) (UniProt Q15059+Q96SW2); assay: PROTAC activity at CRBN/BRD3 in human A549 cells assessed as degradation of BRD3 protein level at 100 nM incubated for 24 hrs; type: cell-based
Protein cereblon/Bromodomain-containing protein 3 (Homo sapiens), sequence (Q15059 2-726 limits assumed): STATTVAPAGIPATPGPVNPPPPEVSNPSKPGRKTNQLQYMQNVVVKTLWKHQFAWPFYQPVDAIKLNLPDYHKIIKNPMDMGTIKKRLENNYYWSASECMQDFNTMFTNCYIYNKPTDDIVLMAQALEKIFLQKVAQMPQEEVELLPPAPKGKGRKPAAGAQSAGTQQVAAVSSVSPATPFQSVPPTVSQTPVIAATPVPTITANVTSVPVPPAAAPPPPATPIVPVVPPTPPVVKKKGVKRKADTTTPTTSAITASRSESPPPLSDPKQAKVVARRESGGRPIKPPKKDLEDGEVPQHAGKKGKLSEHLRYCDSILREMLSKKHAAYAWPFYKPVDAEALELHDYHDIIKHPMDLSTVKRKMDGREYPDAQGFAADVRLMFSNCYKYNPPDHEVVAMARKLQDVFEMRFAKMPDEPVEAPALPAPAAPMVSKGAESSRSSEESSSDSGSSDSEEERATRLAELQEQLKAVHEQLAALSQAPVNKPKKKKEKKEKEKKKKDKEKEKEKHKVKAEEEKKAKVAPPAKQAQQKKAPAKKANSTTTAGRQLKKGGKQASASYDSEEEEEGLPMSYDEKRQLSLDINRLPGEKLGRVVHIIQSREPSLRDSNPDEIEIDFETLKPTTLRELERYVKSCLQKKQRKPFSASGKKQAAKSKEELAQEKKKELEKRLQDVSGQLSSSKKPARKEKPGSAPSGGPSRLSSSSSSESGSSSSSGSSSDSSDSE
Protein cereblon/Bromodomain-containing protein 3 (Homo sapiens), sequence (Q96SW2 whole entry partner): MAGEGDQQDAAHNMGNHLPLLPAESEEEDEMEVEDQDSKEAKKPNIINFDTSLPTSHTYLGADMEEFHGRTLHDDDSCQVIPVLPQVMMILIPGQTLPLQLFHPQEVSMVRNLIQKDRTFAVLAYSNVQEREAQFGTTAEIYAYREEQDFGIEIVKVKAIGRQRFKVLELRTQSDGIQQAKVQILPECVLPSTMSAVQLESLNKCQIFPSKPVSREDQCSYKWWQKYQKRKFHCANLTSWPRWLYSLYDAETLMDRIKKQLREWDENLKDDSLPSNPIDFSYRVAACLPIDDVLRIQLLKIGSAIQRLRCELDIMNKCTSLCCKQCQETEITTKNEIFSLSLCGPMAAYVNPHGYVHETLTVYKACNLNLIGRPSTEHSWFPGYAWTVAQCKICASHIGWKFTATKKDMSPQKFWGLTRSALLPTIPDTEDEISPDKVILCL

[3] = biological target: Protein cereblon/Bromodomain-containing protein 2 (Homo sapiens) (UniProt P25440+Q96SW2); assay: PROTAC activity at CRBN/BRD2 in human A549 cells assessed as degradation of BRD2 protein level at 100 nM incubated for 24 hrs; type: cell-based
Protein cereblon/Bromodomain-containing protein 2 (Homo sapiens), sequence (P25440 whole entry, looked up): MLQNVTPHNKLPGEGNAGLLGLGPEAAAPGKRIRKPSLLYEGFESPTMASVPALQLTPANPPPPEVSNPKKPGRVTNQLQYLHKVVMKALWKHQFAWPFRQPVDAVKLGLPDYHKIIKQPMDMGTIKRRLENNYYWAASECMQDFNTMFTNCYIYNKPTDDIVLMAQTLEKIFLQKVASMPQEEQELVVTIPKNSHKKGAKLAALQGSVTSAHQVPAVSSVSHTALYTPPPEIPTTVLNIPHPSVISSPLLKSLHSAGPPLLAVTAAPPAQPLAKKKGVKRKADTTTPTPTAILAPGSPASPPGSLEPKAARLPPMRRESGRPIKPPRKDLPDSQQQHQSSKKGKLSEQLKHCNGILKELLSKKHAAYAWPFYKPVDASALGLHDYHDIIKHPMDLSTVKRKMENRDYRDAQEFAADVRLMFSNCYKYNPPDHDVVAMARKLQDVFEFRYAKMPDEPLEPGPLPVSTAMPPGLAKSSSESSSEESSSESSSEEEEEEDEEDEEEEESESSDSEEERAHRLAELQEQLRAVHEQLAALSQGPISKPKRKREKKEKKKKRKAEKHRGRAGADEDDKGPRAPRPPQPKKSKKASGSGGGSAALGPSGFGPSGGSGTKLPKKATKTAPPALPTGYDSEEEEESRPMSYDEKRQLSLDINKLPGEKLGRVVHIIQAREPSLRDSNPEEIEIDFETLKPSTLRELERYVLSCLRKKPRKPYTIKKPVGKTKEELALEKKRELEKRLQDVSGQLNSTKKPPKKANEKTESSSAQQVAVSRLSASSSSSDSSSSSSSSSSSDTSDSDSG
Protein cereblon/Bromodomain-containing protein 2 (Homo sapiens), sequence (Q96SW2 whole entry, looked up): as the sequence (Q96SW2 whole entry partner) above

A549 [4] = assay: Upregulation of p21 protein expression in human A549 cells at 100 nM measured after 24 hrs; type: functional, cell-based
A549 [5] = assay: Upregulation of p53 protein expression in human A549 cells at 10 to 100 nM; type: functional, cell-based; details: dose 10-100 nM, time 3-24 hrs, TDE = time-dependent effect
[6] = biological target: Protein cereblon/Bromodomain-containing protein 4 (Homo sapiens) (UniProt O60885+Q96SW2); assay: PROTAC activity at CRBN/BRD4 in human A549 cells assessed as degradation of BRD4 protein level at 100 nM incubated for 24 hrs; type: cell-based
Protein cereblon/Bromodomain-containing protein 4 (Homo sapiens), sequence (Q96SW2 whole entry, looked up, other chains not shown): as the sequence (Q96SW2 whole entry partner) above

Measured: Activity

CCn1nc(C2CC2)cc1Nc1nc(C(=O)NCCCCCc2cccc3c2CN(C2CCC(=O)NC2=O)C3=O)nc2[nH]c3cc(-c4c(C)noc4C)c(OC)cc3c12 (stereo unspecified)
active: A549 [1] Dose-Dependent Effect | [2] | [3] | A549 [4] | A549 [5] Tde | [6]
